From patent US7491793B2 (priority 2003, dated 2009)

Test system: Lassa virus (Josiah strain)
Format: cell-based

Row | Sequence | inhibition of plaque formation by LasV
1 | GWTFWTLSDSEGKDTPGGY [SEQ ID NO:31] | inhibited infection by LasV, but to a lesser extent
2 | NYSKYWYLNHTTTGR [SEQ ID NO:30] | can inhibit plaque formation by LasV
